These results are taken from patent US20140187618A1, “COMPOSITIONS, METHODS AND KITS USING FOR INDUCING OR ENHANCING NEUROGENESIS IN CELLS AND TISSUE” (Biocrescentia, LLC, priority 2012, published 2014).

One test relates to Leishmania amazonensis. Particulars: cited from earlier work.
In another test the test system is macrophages. To be noted: cultured in vitro model; cited from earlier work.
For test [1], the system named is TNF-α, interleukin-6 and interleukin-12. To be noted: mice treated with lipopolysaccharide; cited from earlier work.
Test [2] concerns neural stem cells in the dentate gyrus of the hippocampus. The experiment in a line: BrdU quantification of hippocampal stem cell proliferation in adult mice. Set-up: species or system BalbC mice. To be noted: in vivo and in vitro; summary statement. The protocol:
(§1) Adult six to eight week old male BalbC mice were obtained and kept in cages at room temperature, allowed access to food and water ad libidum, and subjected to 12-hour light/darkness cycles. All procedures were conducted in accordance with the guide for laboratory animal care of the Institute of Biological Sciences/Federal University of Pará (ICB/UFPA) Ethics Committee.
(§2) For BrdU analysis, animal subjects were administered BrdU (50 mg/kg) and were euthanized, and then were perfused with saline and 4% paraformaldehyde (PFA). The brain tissues were dissected and fixed at 4° C. in 4% PFA for 12 hours, then cryoprotected in 20% sucrose. The brain tissues were sliced at 40 micrometers (microns, μm) in a cryostat. […]
To analyze hippocampal stem cell proliferation and effect of physalins on this proliferation, groups of subjects were administered a dose of 50 mg/kg BrdU intraperitoneally and different doses of PD. […] The total number of BrdU-positive cells in the subgranule layer of the hippocampus was quantified. The number of BrdU-positive cells was calculated by measuring the area (ten micrometers corresponds to two cell bodies) between the hilus and the hippocampal granule layer in each cut (Bastos et al. 2008 J. Ethnopharmacol. 118(2): pages 246-251). […]
A qualitative analysis of BrdU-labeled cells in the dentate gyrus of adult mice was also performed using fluorescence microscopy. […]

The test system of test [3] is BrdU-positive cells in the subgranule layer of the hippocampus. The test can be described thus: BrdU quantification of hippocampal stem cell proliferation, dosing every 7 days for 90 days. Particulars: 5 mg/kg every 7 days for 90 days. The class given is in vivo, BalbC mice. The procedure:
as §1, §2
To further analyze and quantitate hippocampal stem cell proliferation, effect of physalins on this proliferation, and survival of subjects, groups of subjects were administered a dose of 50 mg/kg BrdU intraperitoneally and 5 mg/kg of PD or AE every 7 days for 90 days. […] The total number of BrdU-positive cells in the subgranule layer of the hippocampus was quantified. The number of BrdU-positive cells was calculated by measuring the area (ten micrometers corresponds to two cell bodies) between the hilus and the hippocampal granule layer in each cut by the method of Bastos et al. 2008 J. Ethnopharmacol. […]

Test [4] relates to hippocampus cells (nestin-positive cells). The experiment in a line: Nestin immunostaining of hippocampus cell culture. The class given is cell-based, Wistar rats. To be noted: 10 μM of PD for 24 hours; control EGF and FGF-2 10 ng/ml. The procedure: The hippocampi of Wistar rats (post natal days one to five) were dissected and mechanically dissociated. Viable cells were plated in four wells of a multi-well culture dish (NUNC Inc.) at a density of 10^6 cells/well containing neurobasal medium without serum or growth factor. After 24 hours, the cells were washed and PD was added to the cells (treated group). Control cells (absent PD) were treated with 10 nanograms per milliliter (ng/ml) of each of EGF and FGF-2 only. Cultures were incubated at 37° C. with 5% CO2 and 95% atmospheric air.
Hippocampus cells were cultured with 10 μM of PD for 24 hours, and the cells were then immunostained for using an anti-nestin antibody. Nestin is an intermediate filament protein expressed in dividing cells during the early stages of development in the central nervous system (CNS), peripheral nervous system (PNS) and in myogenic and other tissues. Without being limited by any particular theory or mechanism of action, it is here envisioned that presence of nestin in hippocampus cells indicates the presence of progenitor stem cells.

The conditions of test [5]: in vivo; cited from earlier work.

With `C[C@]12C(=O)C=CCC1=CC[C@@H]1[C@@H]2CC[C@@]2(O)C(=O)O[C@@]3(C)[C@H]4C[C@@]5(C)[C@@H](CO[C@@]16O[C@]23[C@H]5C6=O)C(=O)O4` [Physalin B], in the test with Leishmania amazonensis, the “growth of Leishmania amazonensis in macrophages infected with the parasite” value is “inhibit the growth”. In the test with macrophages, the “macrophages activation by lipopolysaccharide and interferon-γ” value (“macrophages activation” below) is “inhibit macrophages activation”; the nitric oxide production result is on record as “substantial reduction in nitric oxide production”. Also, in test [1], the “levels of TNF-α in serum” value is reported as “significantly reduce levels”, the “levels of interleukin-6 in serum” value is “significantly reduce levels” and the “levels of interleukin-12 in serum” value is listed as “significantly reduce levels”.

In the case of `C[C@@]12C[C@H]3OC(=O)[C@@H]1CO[C@]14O[C@]5([C@H]2C1=O)[C@@](O)(CC[C@H]1[C@H]4C[C@@H](O)[C@@]2(O)CC=CC(=O)[C@]12C)C(=O)O[C@@]35C` [Physalin D], in test [2], the neurogenic activity result was “neurogenic activity in vivo and in vitro”. Moreover, in test [3], the “actively dividing cells in adult hippocampus tissues” value was “promotes the increase of actively dividing cells” and the cell survival result is “improves cell survival for at least three months”. Further, the “number of nestin-positive cells in the hippocampus cell culture” value in test [4] is “increased the number of nestin-positive cells”.

For `C[C@@]12C[C@H]3OC(=O)[C@@H]1CO[C@]14O[C@]5([C@H]2C1=O)[C@@](O)(CC[C@H]1[C@H]4C[C@H]2O[C@]24CC=CC(=O)[C@]14C)C(=O)O[C@@]35C` [Physalin F], the “growth of Leishmania amazonensis in macrophages infected with the parasite” value in the test on Leishmania amazonensis was “inhibit the growth”. Besides, in the test on macrophages, the “macrophages activation” value is given as “inhibit macrophages activation”; the nitric oxide production entry is reported as “substantial reduction in nitric oxide production”.

With `C[C@]12C(=O)C=CCC1C(O)CC1C2CC[C@]2(O)C(=O)O[C@@]3(C)[C@H]4C[C@@]5(C)C6C(=O)[C@]1(OC[C@H]5C(=O)O4)O[C@@]632` (stereo partly shown) [Physalin G], in the test on macrophages, the “macrophages activation” value is listed as “inhibit macrophages activation”; the nitric oxide production result is recorded as “substantial reduction in nitric oxide production”.

For the compound `CNCCC(Oc1ccc(C(F)(F)F)cc1)c1ccccc1` (stereo not shown) [fluoxetine], the “reduction of stress-induced neurogenesis” value in test [5] is “reverses or prevents the reduction of stress-induced neurogenesis”.
